ChEMBL document CHEMBL5303573, “Mapping human microbiome drug metabolism by gut bacteria and their genes” (Nature, 2019)

What was measured:
[1] = The drug is tested on Collinsella aerofaciens strain: ATCC25986 for biotransformation. The drug concentrations were measured before and after a 12-h incubation by liquid-chromatography-coupled mass spectrometry (LC–MS); conditions: 2 µM
[2] = The drug is tested on Alistipes indistinctus strain: DSM22520 for biotransformation. The drug concentrations were measured before and after a 12-h incubation by liquid-chromatography-coupled mass spectrometry (LC–MS); conditions: 2 µM
[3] = The drug is tested on Bacteroides fragilis strain: HMW615 for biotransformation. The drug concentrations were measured before and after a 12-h incubation by liquid-chromatography-coupled mass spectrometry (LC–MS); conditions: 2 µM
[4] = The drug is tested on Bacteroides vulgatus strain: ATCC8482 for biotransformation. The drug concentrations were measured before and after a 12-h incubation by liquid-chromatography-coupled mass spectrometry (LC–MS); conditions: phocaeicola vulgatus, 2 µM
[5] = The drug is tested on Parabacteroides merdae strain: ATCC43184 for biotransformation. The drug concentrations were measured before and after a 12-h incubation by liquid-chromatography-coupled mass spectrometry (LC–MS); conditions: 2 µM
[6] = The drug is tested on Blautia hansenii strain: DSM20583 for biotransformation. The drug concentrations were measured before and after a 12-h incubation by liquid-chromatography-coupled mass spectrometry (LC–MS); conditions: 2 µM
[7] = The drug is tested on Clostridium sporogenes strain: ATCC15579 for biotransformation. The drug concentrations were measured before and after a 12-h incubation by liquid-chromatography-coupled mass spectrometry (LC–MS); conditions: 2 µM
[8] = The drug is tested on Dorea formicigenerans strain: ATCC27755 for biotransformation. The drug concentrations were measured before and after a 12-h incubation by liquid-chromatography-coupled mass spectrometry (LC–MS); conditions: 2 µM
[9] = The drug is tested on Eubacterium rectale strain: ATCC33656 for biotransformation. The drug concentrations were measured before and after a 12-h incubation by liquid-chromatography-coupled mass spectrometry (LC–MS); conditions: agathobacter rectalis, 2 µM
[10] = The drug is tested on Ruminococcus gnavus strain: ATCC29149 for biotransformation. The drug concentrations were measured before and after a 12-h incubation by liquid-chromatography-coupled mass spectrometry (LC–MS); conditions: mediterraneibacter gnavus, 2 µM
[11] = The drug is tested on Ruminococcus lactaris strain: ATCC29176 for biotransformation. The drug concentrations were measured before and after a 12-h incubation by liquid-chromatography-coupled mass spectrometry (LC–MS); conditions: 2 µM
[12] = The drug is tested on Subdoligranulum variabile strain: DSM15176 for biotransformation. The drug concentrations were measured before and after a 12-h incubation by liquid-chromatography-coupled mass spectrometry (LC–MS); conditions: 2 µM
[13] = The drug is tested on Providencia stuartii strain: ATCC25827 for biotransformation. The drug concentrations were measured before and after a 12-h incubation by liquid-chromatography-coupled mass spectrometry (LC–MS); conditions: 2 µM
[14] = bacteroides fragilis, 12 h, 2 µM
Description: The drug is tested on Bacteroides fragilis strain: NCTC 9343 for biotransformation. The drug concentrations were measured before and after a 12-h incubation by liquid-chromatography-coupled mass spectrometry (LC–MS)

[15] = bacteroides fragilis, 12 h, 2 µM; remark: listed apart in the source
Description: The drug is tested on Bacteroides fragilis strain: 3397 (T10) for biotransformation. The drug concentrations were measured before and after a 12-h incubation by liquid-chromatography-coupled mass spectrometry (LC–MS)

[16] = parabacteroides johnsonii, 12 h, 2 µM
Description: The drug is tested on Parabacteroides johnsonii strain: DSM18315 for biotransformation. The drug concentrations were measured before and after a 12-h incubation by liquid-chromatography-coupled mass spectrometry (LC–MS)

[17] = segatella copri, 12 h, 2 µM
Description: The drug is tested on Prevotella copri strain: DSM18205 for biotransformation. The drug concentrations were measured before and after a 12-h incubation by liquid-chromatography-coupled mass spectrometry (LC–MS)

[18] = enterocloster bolteae, 12 h, 2 µM
Description: The drug is tested on Clostridium bolteae strain: ATCCBAA-613 for biotransformation. The drug concentrations were measured before and after a 12-h incubation by liquid-chromatography-coupled mass spectrometry (LC–MS)

[19] = roseburia intestinalis, 12 h, 2 µM
Description: The drug is tested on Roseburia intestinalis strain: L1-82 for biotransformation. The drug concentrations were measured before and after a 12-h incubation by liquid-chromatography-coupled mass spectrometry (LC–MS)

[20] = victivallis vadensis, 12 h, 2 µM
Description: The drug is tested on Victivallis vadensis strain: ATCC BAA-548 for biotransformation. The drug concentrations were measured before and after a 12-h incubation by liquid-chromatography-coupled mass spectrometry (LC–MS)

SMILES	Bacterial Biotransformation [1]	Bacterial Biotransformation [2]	Bacterial Biotransformation [3]	Bacterial Biotransformation [4]	Bacterial Biotransformation [5]	Bacterial Biotransformation [6]	Bacterial Biotransformation [7]	Bacterial Biotransformation [8]	Bacterial Biotransformation [9]	Bacterial Biotransformation [10]	Bacterial Biotransformation [11]	Bacterial Biotransformation [12]	Bacterial Biotransformation [13]	Bacterial Biotransformation [14]	Bacterial Biotransformation [15]	Bacterial Biotransformation [16]	Bacterial Biotransformation [17]	Bacterial Biotransformation [18]	Bacterial Biotransformation [19]	Bacterial Biotransformation [20]
N[C@@H](Cc1ccc(N(CCCl)CCCl)cc1)C(=O)O	Compound metabolized	Compound metabolized	Compound metabolized	Compound metabolized	Compound metabolized	Compound metabolized	Compound metabolized	Compound metabolized	Compound metabolized	Compound metabolized	Compound metabolized	Compound metabolized	Compound metabolized	Compound metabolized	Compound metabolized	Compound metabolized	Compound metabolized	Compound metabolized	Compound metabolized	Compound metabolized
OC(CCN1CCCCC1)(c1ccccc1)C1CC2C=CC1C2 (stereo not given) [BIPERIDEN]	Compound NOT metabolized	Compound NOT metabolized	Compound NOT metabolized	Compound metabolized	Compound NOT metabolized	Compound NOT metabolized	Compound NOT metabolized	Compound NOT metabolized	Compound NOT metabolized	Compound NOT metabolized	Compound NOT metabolized	Compound NOT metabolized	Compound NOT metabolized	–	Compound NOT metabolized	–	Compound NOT metabolized	Compound NOT metabolized	Compound NOT metabolized	Compound NOT metabolized
CC(NC(C)(C)C)C(=O)c1cccc(Cl)c1 (stereo not given) [BUPROPION]	–	Compound NOT metabolized	Compound NOT metabolized	Compound NOT metabolized	Compound metabolized	Compound NOT metabolized	Compound NOT metabolized	Compound NOT metabolized	–	Compound NOT metabolized	Compound NOT metabolized	Compound NOT metabolized	–	Compound NOT metabolized	Compound NOT metabolized	Compound NOT metabolized	Compound NOT metabolized	Compound NOT metabolized	–	Compound NOT metabolized
O=P1(N(CCCl)CCCl)NCCCO1 (stereo not given) [CYCLOPHOSPHAMIDE ANHYDROUS]	Compound NOT metabolized	Compound metabolized	Compound metabolized	Compound NOT metabolized	Compound NOT metabolized	Compound metabolized	Compound NOT metabolized	–	Compound NOT metabolized	Compound NOT metabolized	–	Compound NOT metabolized	Compound NOT metabolized	Compound NOT metabolized	Compound NOT metabolized	Compound NOT metabolized	Compound NOT metabolized	–	Compound NOT metabolized	Compound NOT metabolized
CC[C@H](C)C(=O)O[C@H]1CCC=C2C=C[C@H](C)[C@H](CC[C@@H]3C[C@@H](O)CC(=O)O3)[C@H]21 [MEVASTATIN]	Compound metabolized	Compound metabolized	–	Compound metabolized	Compound metabolized	Compound metabolized	Compound metabolized	Compound metabolized	Compound metabolized	Compound metabolized	Compound metabolized	Compound metabolized	Compound metabolized	Compound metabolized	Compound metabolized	Compound metabolized	Compound metabolized	Compound metabolized	Compound metabolized	Compound metabolized
Cc1nc2n(c(=O)c1CCN1CCC(c3noc4cc(F)ccc34)CC1)CCCC2O (stereo not given) [PALIPERIDONE]	Compound metabolized	Compound metabolized	Compound NOT metabolized	Compound metabolized	Compound metabolized	Compound metabolized	Compound metabolized	Compound metabolized	Compound metabolized	Compound metabolized	Compound metabolized	Compound metabolized	–	Compound metabolized	Compound metabolized	Compound metabolized	Compound metabolized	Compound metabolized	Compound metabolized	Compound NOT metabolized
O=C(O)c1cc(/N=N/c2ccc(S(=O)(=O)Nc3ccccn3)cc2)ccc1O [SULFASALAZINE]	Compound metabolized	Compound metabolized	Compound metabolized	Compound metabolized	Compound metabolized	Compound metabolized	Compound metabolized	Compound metabolized	Compound metabolized	Compound metabolized	Compound metabolized	Compound metabolized	–	Compound metabolized	Compound metabolized	Compound metabolized	Compound metabolized	Compound metabolized	Compound metabolized	Compound metabolized
COc1ccc2[nH]c([S+]([O-])Cc3ncc(C)c(OC)c3C)nc2n1 (stereo not given) [TENATOPRAZOLE]	Compound metabolized	Compound metabolized	Compound metabolized	Compound metabolized	Compound metabolized	Compound metabolized	Compound metabolized	Compound metabolized	Compound metabolized	Compound metabolized	–	Compound metabolized	Compound metabolized	Compound metabolized	Compound metabolized	Compound metabolized	Compound metabolized	–	Compound metabolized	Compound metabolized
CN1CCN(CC/C=C2/c3ccccc3Sc3ccc(S(=O)(=O)N(C)C)cc32)CC1 [THIOTHIXENE]	Compound metabolized	Compound NOT metabolized	Compound NOT metabolized	Compound metabolized	Compound NOT metabolized	Compound metabolized	–	Compound NOT metabolized	Compound NOT metabolized	Compound NOT metabolized	Compound metabolized	Compound NOT metabolized	Compound metabolized	Compound metabolized	Compound NOT metabolized	Compound metabolized	Compound metabolized	Compound metabolized	Compound metabolized	Compound NOT metabolized
